In ChEMBL document CHEMBL1148887, “Design and synthesis of benzoazepinone-derived cyclic malonamides and aminoamides as potent gamma-secretase inhibitors” (Bioorg Med Chem Lett, 2007):

target: Gamma-secretase; assay: Inhibition of gamma secretase in APP-transfected CHO cells; type: cell-based, Homo sapiens; details: not given

SMILES	IC50
CN1C(=O)[C@@H](NC(=O)C2(C(=O)N[C@H](O)C3CCCCC3)CCC2)N=C(c2ccc(C(F)(F)F)cc2)c2ccccc21	280 nM
CC(C)[C@H](O)NC(=O)C1(C(=O)N[C@H]2N=C(c3ccc(C(F)(F)F)cc3)c3ccccc3N(C)C2=O)CCC1	6.7 nM
CC(C)C[C@H](O)NC(=O)C1(C(=O)N[C@H]2N=C(c3ccc(C(F)(F)F)cc3)c3ccccc3N(C)C2=O)CCC1	6.1 nM
CC(C)CNC(=O)C1(C(=O)N[C@H]2N=C(c3ccc(C(F)(F)F)cc3)c3ccccc3N(C)C2=O)CCC1	28 nM
CC(C)CNC(=O)C1(C(=O)N[C@H]2N=C(c3ccccc3)c3ccccc3N(C)C2=O)CCCC1	19.5 nM
CC(C)[C@H](O)NC(=O)C1(C(=O)N[C@@H]2C(=O)N(C)c3ccccc3-c3ccccc32)CCC1	15 nM
CN1C(=O)[C@@H](NC(=O)C2(C(=O)N[C@@H](O)C3CCCCC3)CCC2)N=C(c2ccc(C(F)(F)F)cc2)c2ccccc21	11 nM
CN1C(=O)[C@@H](NC(=O)C2(C(=O)NCCC3CCCC3)CCC2)c2ccccc2-c2ccccc21	21 nM
CN1C(=O)[C@@H](NC(=O)C2(C(=O)NCc3cc(F)cc(F)c3)CCCC2)N=C(c2ccccc2)c2ccccc21	96 nM
CC(C)CC(F)(F)NC(=O)C1(C(=O)N[C@@H]2C(=O)N(C)c3ccccc3-c3ccccc32)CCC1	280 nM
CC(C)CNC(=O)C1(C(=O)N[C@@H]2C(=O)N(C)c3ccccc3-c3ccccc32)CCCC1	26.1 nM
CC(C)CNC(=O)C1(C(=O)N[C@H]2N=C(c3ccc(C(F)(F)F)cc3)c3ccccc3N(C)C2=O)CCCC1	12.5 nM

target: Gamma-secretase; assay: Displacement of [3H]succinamide from gamma secretase in THP1 cell membranes; parameters: species or system Homo sapiens; details: thp-1

SMILES	Ki
CN1C(=O)[C@@H](NC(=O)C2(C(=O)N[C@H](O)C3CCCCC3)CCC2)N=C(c2ccc(C(F)(F)F)cc2)c2ccccc21	111 nM
CC(C)[C@H](O)NC(=O)C1(C(=O)N[C@H]2N=C(c3ccc(C(F)(F)F)cc3)c3ccccc3N(C)C2=O)CCC1	1.1 nM
CC(C)C[C@H](O)NC(=O)C1(C(=O)N[C@H]2N=C(c3ccc(C(F)(F)F)cc3)c3ccccc3N(C)C2=O)CCC1	2.1 nM
CC(C)CNC(=O)C1(C(=O)N[C@H]2N=C(c3ccc(C(F)(F)F)cc3)c3ccccc3N(C)C2=O)CCC1	1.2 nM
CC(C)CNC(=O)C1(C(=O)N[C@H]2N=C(c3ccccc3)c3ccccc3N(C)C2=O)CCCC1	6.2 nM
CC(C)[C@H](O)NC(=O)C1(C(=O)N[C@@H]2C(=O)N(C)c3ccccc3-c3ccccc32)CCC1	3.9 nM
CN1C(=O)[C@@H](NC(=O)C2(C(=O)N[C@@H](O)C3CCCCC3)CCC2)N=C(c2ccc(C(F)(F)F)cc2)c2ccccc21	3.1 nM
CN1C(=O)[C@@H](NC(=O)C2(C(=O)NCCC3CCCC3)CCC2)c2ccccc2-c2ccccc21	1.3 nM
CN1C(=O)[C@@H](NC(=O)C2(C(=O)NCc3cc(F)cc(F)c3)CCCC2)N=C(c2ccccc2)c2ccccc21	9.9 nM
CC(C)CC(F)(F)NC(=O)C1(C(=O)N[C@@H]2C(=O)N(C)c3ccccc3-c3ccccc32)CCC1	22 nM
CC(C)CNC(=O)C1(C(=O)N[C@@H]2C(=O)N(C)c3ccccc3-c3ccccc32)CCCC1	3 nM
CC(C)CNC(=O)C1(C(=O)N[C@H]2N=C(c3ccc(C(F)(F)F)cc3)c3ccccc3N(C)C2=O)CCCC1	2 nM

target: Gamma-secretase; assay: Inhibition of gamma secretase-mediated beta amyloid production in NIH3T3 cells; type: cell-based, Homo sapiens; details: not given

SMILES	IC50
CC(C)C[C@H](O)NC(=O)C1(C(=O)N[C@H]2N=C(c3ccc(C(F)(F)F)cc3)c3ccccc3N(C)C2=O)CCC1	6.1 nM

system: not listed separately; assay: Fraction unbound ligand in Beagle dog at 0.5 mg/kg, po; type: ADME, organism-based, Canis lupus familiaris; parameters: dose 0.5 mg/kg, route oral; details: in vivo

SMILES	fraction unbound
CC(C)C[C@H](O)NC(=O)C1(C(=O)N[C@H]2N=C(c3ccc(C(F)(F)F)cc3)c3ccccc3N(C)C2=O)CCC1	0.017
CN1C(=O)[C@@H](NC(=O)C2(C(=O)NCCC3CCCC3)CCC2)c2ccccc2-c2ccccc21	0.002

system: not listed separately; assay: Clearance in Beagle dog at 0.5 mg/kg, po; type: ADME, organism-based, Canis lupus familiaris; parameters: dose 0.5 mg/kg, route oral; details: in vivo

SMILES	CL/F
CC(C)C[C@H](O)NC(=O)C1(C(=O)N[C@H]2N=C(c3ccc(C(F)(F)F)cc3)c3ccccc3N(C)C2=O)CCC1	0.667 mL/min/kg
CN1C(=O)[C@@H](NC(=O)C2(C(=O)NCCC3CCCC3)CCC2)c2ccccc2-c2ccccc21	5 mL/min/kg

system: Canis familiaris; assay: Volume of distribution at steady state in Beagle dog at 0.5 mg/kg, po; type: ADME, organism-based, Canis lupus familiaris; parameters: dose 0.5 mg/kg, route oral; details: in vivo

SMILES	Vdss
CC(C)C[C@H](O)NC(=O)C1(C(=O)N[C@H]2N=C(c3ccc(C(F)(F)F)cc3)c3ccccc3N(C)C2=O)CCC1	0.2 L/kg
CN1C(=O)[C@@H](NC(=O)C2(C(=O)NCCC3CCCC3)CCC2)c2ccccc2-c2ccccc21	2.9 L/kg

system: not listed separately; assay: Half life in Beagle dog at 0.5 mg/kg, po; type: ADME, organism-based, Canis lupus familiaris; parameters: dose 0.5 mg/kg, route oral; details: in vivo

SMILES	half-life
CC(C)C[C@H](O)NC(=O)C1(C(=O)N[C@H]2N=C(c3ccc(C(F)(F)F)cc3)c3ccccc3N(C)C2=O)CCC1	6.5 h
CN1C(=O)[C@@H](NC(=O)C2(C(=O)NCCC3CCCC3)CCC2)c2ccccc2-c2ccccc21	13.4 h

system: not listed separately; assay: Cmax in Beagle dog at 0.5 mg/kg, po; type: ADME, organism-based, Canis lupus familiaris; parameters: dose 0.5 mg/kg, route oral; details: in vivo

SMILES	Cmax
CC(C)C[C@H](O)NC(=O)C1(C(=O)N[C@H]2N=C(c3ccc(C(F)(F)F)cc3)c3ccccc3N(C)C2=O)CCC1	2980 nM
CN1C(=O)[C@@H](NC(=O)C2(C(=O)NCCC3CCCC3)CCC2)c2ccccc2-c2ccccc21	365 nM

system: not listed separately; assay: Oral bioavailability in Beagle dog at 0.5 mg/kg, po; type: ADME, organism-based, Canis lupus familiaris; details: in vivo

SMILES	bioavailability
CC(C)C[C@H](O)NC(=O)C1(C(=O)N[C@H]2N=C(c3ccc(C(F)(F)F)cc3)c3ccccc3N(C)C2=O)CCC1	84%
CN1C(=O)[C@@H](NC(=O)C2(C(=O)NCCC3CCCC3)CCC2)c2ccccc2-c2ccccc21	71%
